# In patent US9981037B2, “Combination therapy of beta-glycolipids and antibodies for the treatment of immune-related disorders” (HADASIT MEDICAL RESEARCH SERVICES AND DEVELOPMENT LTD., priority 2008, dated 2018):
# Test system: IgG and IgM repertoire
# Assay: Antigen microarrays of serum IgG and IgM reactivities
# Type: in vivo, human
# Text: A panel of self and non-self proteins, peptides and lipids were spotted onto Epoxi slides (TeleChem, CA, USA) as described [Quintana, F. J. et al. Proc. Natl. Acad. Sci. USA 101 Suppl 2:14615-14621 (2004)]. Since several of the self-antigens included in the antigen microarrays used by the invention, are targeted by natural antibodies [Coutinho, A. et al. Curr. Opin. Immunol. 7:812-818 (1995); Quintana, F. J. and Cohen, I. R. Biomed Pharmacother 58:276-281 (2004)], the inventors could detect both the up and the down-regulation of preexisting IgG and IgM reactivities. Sera from OKT3-treated subjects were assayed at a 1/10 dilution and the IgG or IgM reactivities displaying significant changes upon treatment were identified. Briefly, antigens were spotted in replicates of 6, the microarrays were blocked for 1 h at 37° C. with 1% bovine serum albumin, and incubated for 2 hr at 37° C. with a 1:200 dilution of the test serum in blocking buffer. The arrays were then washed and incubated for 45 minutes at 37° C. with a 1:500 dilution of detection antibodies: a goat […] Cy3-conjugated antibody or a goat anti-mouse IgM Cy5-conjugated antibody (Jackson ImmunoResearch, West Grove, Pa.). The arrays were scanned with a ScanArray 4000× scanner (GSI Luminomics, Billerica, Mass., USA) and the IgM and IgG results were recorded separately.
# Raw data were normalized and analyzed using the GeneSpring software (Silicon Genetics, Redwood City, Calif.). Antigen reactivity was defined by the mean intensity of binding to the replicates of that antigen on the microarray. The data were analyzed with the Wilcoxon rank-sum test, a non-parametric test robust to outliers, using the Benjamini and Hochberg false discovery method with a p-value of 0.2 to determine significance [Stekel, D. Microarray Bioinformatics. Cambridge University Press, Cambridge (2003)]. To perform the hierarchical clustering of the antibody reactivities a pair wise average linkage algorithm based on Pearson's correlation was used as a distance measure [Stekel (2003) ibid.]
# Antigen microarrays constitute a new tool for studying the immune system in health [Quintana, F. J. and Cohen, I. R. Biomed Pharmacother 58:276-281 (2004); Merbl, Y. et al. Clin. Invest. 117:712-718 (2007); Quintana, F. J. et al. J. Autoimmun. 21:65-75 (2003)] and disease [Goldschmidt, Y. et al. Technical Report MCS03-071-018 (2003); Hueber, W. et al. Arthritis Rheum. 52:2645-2655 (2005)]. The inventors therefore used an antigen microarray containing a broad panel of antigens that included self and non self proteins, heat shock proteins, and infectious agents to investigate the effects of oral OKT3 on the immune repertoire. Both increases and decreases of immunoglobulin reactivities were measured.
# No changes occurred in the IgM repertoire.
substance,measurement,setting,value
"OKT3: murine monoclonal anti-CD3 antibody (Orthoclone OKT-3, Ortho Biotech)",IgG reactivities affected,0.2 mg dose,4
same,IgG reactivities affected,1.0 mg dose,37
same,downregulated IgG reactivities,1.0 mg dose,19
same,up regulated IgG reactivities,1.0 mg dose,18
same,downregulated IgG reactivities,5 mg dose,18
same,up-regulated IgG reactivities,5 mg dose,47
same,IgG reactivities affected,5.0 mg dose,65
same,changes in the IgM repertoire,oral OKT3,No changes
